Patent US10952992B2, “Methods of treating intraocular pressure with activators of Tie-2” (Aerpio Pharmaceuticals, Inc., priority 2015, dated 2021)
Several values for one entry are separate records, joined by “and”; a condition that tells them apart may be missing. Equal entries are not always repeated. Structures can show the parent of a compound that is named as a salt.

Tests used:
[1] = Example 2 vitreous humor concentrations; type: in vivo, male New Zealand White rabbits; settings: for Average Peak Concentration, Vitreous Humor: solution
Description: To measure the concentration of Compound 1 in plasma and ocular tissues following topical ocular, subcutaneous, and intravitreal administration, New Zealand White rabbits were administered Compound 1, and plasma and ocular samples were collected at pre-determined time points. Compound 1 formulations were prepared fresh on each day of dosing.
Ocular tissue samples from both eyes of each animal were collected and weights were recorded. Plasma and ocular tissue sample concentrations of Compound 1 were determined by LC-MS/MS.
Animals were anesthetized for ocular (topical) and intravitreal dosing following the 12IA7 IACUC protocol. Each rabbit received a bolus dose of test formulation either via topical ocular administration 3 times daily on Days 1 and 2 (at 0, 6, and 12 hours), and once on Day 3 (at 0 hours) into both eyes; via intravitreal administration into both eyes once on Day 1 (at 0 hours); or via subcutaneous administration 2 times daily on Days 1 and 2 (at 0 and 8 hours) and once daily on Day 3 (at 0 hours). Doses were given within an approximately 1 hour window each day where applicable.
On Day 1, for intravitreal administration, or on Day 3, for topical ocular and subcutaneous administration, at the appropriate ocular tissue collection time points, animals were euthanized and both eyes were enucleated immediately. Following enucleation, each eye was rinsed with phosphate-buffered saline. Ocular tissue samples from both eyes of each animal were collected at predetermined time points and weights were recorded. All the samples were frozen immediately on dry ice, and stored at −60° C. to −80° C. pending bioanalysis.
An LC-MS/MS method was developed for the determination of Compound 1 in rabbit aqueous tissues (plasma, aqueous and vitreous humor) and solid ocular tissue samples. A pre-study standard curve was analyzed to determine the specificity, range, and lower limit of quantitation of the method. Plasma and tissue homogenate study samples were extracted and analyzed. All the samples were treated identically to the standards.
One eight-point standard curve was used in each analytical batch. To be accepted, each batch must have had at least five of eight standards with accuracy within ±20% of nominal, except at the lower limit of quantification (LLOQ), where ±25% was acceptable.

[2] = test system: intraocular pressure in normotensive New Zealand White rabbits; test: Example 3 intraocular pressure after repeated topical and subcutaneous administration (pneumotonometer); type: in vivo
Description: To measure the tolerability and effect of Compound 1 (sodium salt) on intraocular pressure following repeated topical and subcutaneous administration, normotensive New Zealand White rabbits were treated with Compound 1 (sodium salt). Animals were acclimated 1 to 2 times per day to the intraocular pressure (IOP) measurement procedures prior to initiation of the study to determine baseline IOP levels. IOP acclimation was performed in the two weeks prior to study start for a total of 5 days. Animals with unacceptable IOP values were excluded from the study. Prior to taking all IOP measurements, 1 to 2 drops of a 0.5% proparacaine solution were applied to the eye as a topical anesthetic. OP measurements were performed with a pneumotonometer. Test and control formulations were administered to the animals once or twice daily topically into both eyes or subcutaneously starting on Day 1 according to TABLE 20 and TABLE 21 below. PM dosing, where applicable, was performed ˜8 hours after AM dosing. IOP measurements were performed twice (AM and PM) at baseline (prior to the start of dosing), twice (AM and PM) on Days 1 and 7, and once daily (AM) on Days 2-6 and Day 8. Prior to taking all IOP measurements, 1 to 2 drops of a 0.5% proparacaine solution were applied to the eye as a topical anesthetic. IOP measurements were performed with a pneumotonometer. AM IOP measurements were performed 2 hours after AM dosing; the only exceptions were Day 8 AM measurements, which were performed 24 hours after the final dose. PM IOP measurements were performed ˜5 hours (baseline and Day 1) or ˜4 hours (Day 7) after AM IOP measurements, prior to PM dosing, with at least 15 minutes elapsing between anesthetic application for PM IOP measurements and PM dosing. The final round of slit-lamp examinations was performed on Day 8.

[3] = Group 1 (topical ocular 1.2 mg/eye), 0.5 hr
[4] = Group 1 (topical ocular 1.2 mg/eye), 1.0 hr
[5] = Group 1 (topical ocular 1.2 mg/eye), 2.0 hr
[6] = Group 1 (topical ocular 1.2 mg/eye), 4.0 hr
[7] = Group 2 (subcutaneous 5 mg/kg/dose, solution), 0.5 hr
[8] = Group 2 (subcutaneous 5 mg/kg/dose, solution), 1.0 hr
[9] = Group 2 (subcutaneous 5 mg/kg/dose, solution), 2.0 hr, BLOQ = below 0.2 ng/mL
[10] = Group 2 (subcutaneous 5 mg/kg/dose, solution), 4.0 hr, BLOQ = below 0.2 ng/mL
[11] = Group 4 (intravitreal 2.5 mg/eye, solution), 6.0 hr
[12] = Group 4 (intravitreal 2.5 mg/eye, solution), 24 hr
[13] = Group 4 (intravitreal 2.5 mg/eye, solution), 48 hr
[14] = Group 4 (intravitreal 2.5 mg/eye, solution), 72 hr

vitreous humor Average Conc. [1, 3]: 0.61 ng/g
vitreous humor Conc. OD [1, 3]: 0.549 ng/mL
vitreous humor Conc. OS [1, 3]: 0.528 ng/mL and 0.507 ng/mL
vitreous humor Average Conc. [1, 4]: 2.09 ng/g
vitreous humor Conc. OD [1, 4]: 1.97 ng/mL and 3.28 ng/mL
vitreous humor Average Conc. [1, 5]: 3.33 ng/g
vitreous humor Conc. OD [1, 5]: 1.14 ng/mL
vitreous humor Conc. OS [1, 5]: 0.950 ng/mL
vitreous humor Average Conc. [1, 6]: 4.01 ng/g
vitreous humor Conc. OD [1, 6]: 1.09 ng/mL and 0.551 ng/mL
vitreous humor Conc. OS [1, 6]: 2.20 ng/mL
Average Peak Concentration, Vitreous Humor ([1]; Group 1: topical ocular 0.70 mg/kg/dose): 0.61 ng/g
vitreous humor Average Conc. [1, 7]: 0.83 ng/g
vitreous humor Conc. OD [1, 7]: 0.77 ng/mL and 0.537 ng/mL
vitreous humor Conc. OS [1, 7]: 1.03 ng/mL and 0.981 ng/mL
vitreous humor Average Conc. [1, 8]: 0.45 ng/g
vitreous humor Conc. OD [1, 8]: 0.252 ng/mL and 0.442 ng/mL
vitreous humor Conc. OD [1, 9]: BLOQ
vitreous humor Conc. OS [1, 9]: BLOQ
vitreous humor Conc. OD [1, 10]: BLOQ
vitreous humor Conc. OS [1, 10]: BLOQ
Average Peak Concentration, Vitreous Humor ([1]; Group 2: subcutaneous 5 mg/kg/dose): 0.83 ng/g
vitreous humor Average Conc. [1, 11]: 988500 ng/g
vitreous humor Conc. OD [1, 11]: 1450000 ng/mL and 1480000 ng/mL
vitreous humor Conc. OS [1, 11]: 592000 ng/mL and 432000 ng/mL
vitreous humor Average Conc. [1, 12]: 349500 ng/g
vitreous humor Conc. OD [1, 12]: 438000 ng/mL and 406000 ng/mL
vitreous humor Conc. OS [1, 12]: 295000 ng/mL and 259000 ng/mL
vitreous humor Average Conc. [1, 13]: 82000 ng/g
vitreous humor Conc. OD [1, 13]: 85200 ng/mL and 68600 ng/mL
vitreous humor Conc. OS [1, 13]: 82300 ng/mL and 91900 ng/mL
vitreous humor Average Conc. [1, 14]: 13450 ng/g
vitreous humor Conc. OD [1, 14]: 14500 ng/mL and 11700 ng/mL
vitreous humor Conc. OS [1, 14]: 13500 ng/mL and 14100 ng/mL
Average Peak Concentration, Vitreous Humor ([1]; Group 4: intravitreal 1.55 mg/kg/dose): 988500 ng/g
vitreous humor concentrations vs free acid (FIG. 11) ([1]; intravitreal administration, 6 hr post-dosing): higher vitreous humor concentrations
vitreous humor concentrations vs free acid (FIG. 10) ([1]; subcutaneous administration, 0.5 hr and 1 hr post-dosing): increased vitreous humor concentrations
vitreous humor concentrations over time (FIG. 9) ([1]; topical ocular administration): increased vitreous humor concentrations
SMILES: COC(=O)N[C@@H](Cc1ccccc1)C(=O)N[C@@H](Cc1ccc(NS(=O)(=O)O)cc1)c1csc(-c2cccs2)n1 [Compound 1 sodium salt]
reduction in IOP values compared to vehicle control ([2]; 10 mg/kg subcutaneous): slightly more consistent
lower IOP values compared to Group 1 (Vehicle) ([2]; Group 2: 0.45 mg/eye topical BID, over the course of dosing): not
IOP values compared to Group 1 (Vehicle) ([2]; Group 3: 1.2 mg/eye topical BID, over the course of dosing): lower IOP values
IOP values compared to Group 1 (Vehicle) ([2]; Group 4: 1.2 mg/eye topical QD, over the course of dosing): lower IOP values
IOP values compared to Group 1 (Vehicle) ([2]; Group 5: 10 mg/kg subcutaneous BID, early part of the study, difference decreased towards the end): Lower IOP values
apparent reduction in intraocular pressure values ([2]; Groups 3 and 4 (1.2 mg/eye topical BID, QD), Day 7 and Day 8 (24 hours after the end of dosing)): persisted
effect on intraocular pressure ([2]; topical 1.2 mg/eye, QD or BID): reduce intraocular pressure
